Among the data in PubChem BioAssay AID1259407 (Chemical Carcinogenesis Research Information System (CCRIS), 2018) are mutagenic call values, retold here.

Calls of active or inactive are those of the source. How the calls were made is not given here.

In the data set the test system is CCRIS mutagenicity, Ames/micronucleus/aberration tests. Nature of the data set: CCRIS mutagenicity studies.
Setting [1] is: Test System: AMES SALMONELLA TYPHIMURIUM, Strain/Indicator: TA100, Metabolic Activation: RAT, LIVER, S-9, AROCLOR 1254, Method: STANDARD PLATE.

As for `[Cl][Sn][Cl]`, the mutagenic call is “active; positive; precipitation occurred at all doses” (End Point: IN VITRO CHROMOSOMAL ABERRATIONS, Test System: CHO CELLS, Metabolic Activation: RAT, LIVER, S-9, AROCLOR 1254); “active; positive (structural and ploidy changes)” (End Point: In vivo chromosomal aberrations, Test System: Bone marrow cells (dams), liver cells (fetuses), Species: Mouse, Strain/Sex: Swiss/Female, Route: Oral); “inactive; negative” (Test System: AMES SALMONELLA TYPHIMURIUM, Strain/Indicator: TA98, Metabolic Activation: NONE, Method: STANDARD PLATE); “inactive; negative” (Test System: AMES SALMONELLA TYPHIMURIUM, Strain/Indicator: TA98, Metabolic Activation: RAT, LIVER, S-9, AROCLOR 1254, Method: STANDARD PLATE); “inactive; negative” (Test System: AMES SALMONELLA TYPHIMURIUM, Strain/Indicator: TA100, Metabolic Activation: NONE, Method: STANDARD PLATE); “inactive; negative” under setting [1]. The mutagenic call reads like this: (Test System: AMES SALMONELLA TYPHIMURIUM, Strain/Indicator: TA1535, Metabolic Activation: NONE, Method: STANDARD PLATE) “inactive; negative”; (Test System: AMES SALMONELLA TYPHIMURIUM, Strain/Indicator: TA1535, Metabolic Activation: RAT, LIVER, S-9, AROCLOR 1254, Method: STANDARD PLATE) “inactive; negative”; (Test System: AMES SALMONELLA TYPHIMURIUM, Strain/Indicator: TA1537, Metabolic Activation: NONE, Method: STANDARD PLATE) “inactive; negative”; (Test System: AMES SALMONELLA TYPHIMURIUM, Strain/Indicator: TA1537, Metabolic Activation: RAT, LIVER, S-9, AROCLOR 1254, Method: STANDARD PLATE) “inactive; negative”; (Test System: AMES SALMONELLA TYPHIMURIUM, Strain/Indicator: TA1538, Metabolic Activation: NONE, Method: STANDARD PLATE) “inactive; negative”; (Test System: AMES SALMONELLA TYPHIMURIUM, Strain/Indicator: TA1538, Metabolic Activation: RAT, LIVER, S-9, AROCLOR 1254, Method: STANDARD PLATE) “inactive; negative”. In addition, the mutagenic call was “inactive; negative” (Test System: E. COLI, Strain/Indicator: WP2, Metabolic Activation: NONE, Method: STANDARD PLATE); “inactive; negative” (Test System: E. COLI, Strain/Indicator: WP2, Metabolic Activation: RAT, LIVER, S-9, AROCLOR 1254, Method: STANDARD PLATE); “inactive; negative” (Test System: E. COLI, Strain/Indicator: WP2 UVRA, Metabolic Activation: NONE, Method: SPOT TEST); “inactive; negative” (Test System: UDS RAT HEPATOCYTES, Strain/Indicator: THY INCORP, Metabolic Activation: NONE).

On to `Oc1cc2ccc3cccc4cc5c(c1-c1ccccc1-5)c2c34`, for which, under setting [1], the mutagenic call is “inactive; negative”.
